The text below walks through data of paper PMC4109918, “Design, Synthesis and Pharmacological Evaluation of Novel Vanadium-Containing Complexes as Antidiabetic Agents” (PLoS ONE, 2014).

Where two headings read alike, the source gives them in different places.

For one series, the system named is FFAs. The note with it: hypoglycemic activity, File S1, cited from earlier work.
Details of series [1]: method as in PMID 12888267. The following applies: cited from earlier work.
Series [2] has as its system adrenaline hyperglycemia in mongrel white mice. In words: In vivo hypoglycemic activity in the adrenaline hyperglycemia model. The note with it: oral, 1/10 of the LD50, 1 hour prior to epinephrine hydrochloride 1 mg/kg s.c. The method, then: Determination of hypoglycemic activity of 5 complexes was performed on 75 mice. Adrenaline hyperglycemia was caused by subcutaneous administration of 0.1% epinephrine hydrochloride (AGH) at a dose of 1 mg/kg. […] In each experimental group there were 3 animals and 3 replicates were performed. The content of glucose in whole blood was determined at 0.5, 1 and 2 hours after administration of AGH or glucose using portable glucose monitoring systems, OneTouch Ultra test strip and OneTouch Ultra and Clever check TD4209 and strips Clever check TD4209.

The subject of series [3] is free fatty acids released in adipocytes. In words: Insulin-mimetic action: inhibition of free fatty acid release from epinephrine-stimulated adipocytes. Type of series: cell-based. The following applies: rat adipocytes, 30 min with compound at 37°C, then 3 hours with epinephrine; 50% inhibition of FFA release; read-out: IC50 exp (±S.D.) (FFAs). The method, then:
All rats (250–300 g) and mice (22–25 g) were housed in a temperature controlled room (24°C±1°C) and they had received standard food pellets and tap water […]. At the end of the study (24 h after CIN induction), all animal test subjects were euthanized by inhalation of ether anesthesia. Rat adipocytes were prepared from the fat pads of male Wistar rats by collagenase digestion according to the method of Rodbell. Freshly prepared adipocytes were incubated (37°C, 30 min) with solutions of the vanadium compounds at three concentrations (0.1, 0.5 and 1 mM in isotonic saline and 5 mM glucose), followed by 3 hours of incubation with epinephrine. The inhibitory effect was determined in terms of the decrease of the amount free fatty acids released in adipocytes. All assays were performed in duplicate or triplicate. […] Investigations were carried out on mongrel white mice.

The next series deals with rat. In words: Acute toxicity study, rapid method of Prozorovskii (LD50). Type of series: in vivo. On the set-up: LD50exp: unit not given here. The following applies: for LD50exp: range in brackets; for Class in AD (experimental toxicity class): rat, in vivo. The method, then: Acute toxicity studies were carried out by rapid method of Prozorovskii. […] The following criteria were used for the evaluation of acute toxicity: the number of dead animals, the timing of their death, LD50 through the night, the picture of intoxication, behavioral change and autopsy results of the survived animals after 14 days. Clinical examination was performed for each animal during the first hour after administration of the substance, and weekly thereafter. Clinical examination included a detailed inspection of the animal in cage, in hands and in the open area. The manifestation and severity of intoxication were noted. Examination of animals in order to identify mortality or signs of variations in health status was conducted on a daily basis. Integrated indicators were assessed weekly during the entire period of observation. Death of animals was recorded daily during entire study period. General condition and behavior of animals as well as type of toxic manifestations, including their development and termination were recorded daily during the procedures for monitoring and inspection of individual animals.

Broadly, the IC50 is the midpoint of a concentration-inhibition curve. By LD50 is commonly meant the dose at which mortality reaches 50%. Regarding `Cc1occc(=O)c1[O-].Cc1occc(=O)c1[O-].[O]=[V+2]` [BMOV, bis(maltolato)oxovanadium(IV)], the half-maximal inhibitory concentration (IC50) with FFAs (ref 5 (Sakurai et al. 2010)) was 676 µM. For the same compound, in series [1], the LD50 is listed as 220 mg/kg. As to `O.O.O.O.O.O.O.O.[Na+].[O]=[V-]12([O][O]1)[O][O]2.c1ccc(-c2ccccn2)nc1` [Complex I, Sodium(2,2′-Bipyridyl) oxo-diperoxovanadate(V) octahydrate], the “decreasing blood glucose level” value in series [2] is 50%. In addition, the IC50 in series [3] came out at 720 ± 90 µM. For the same compound, in the series on rat, the LD50exp is given as 108(95–122) and the “Class in AD (experimental toxicity class)” value (shortened to “Class in AD”) worked out at 3. Consider `CC(=O)/C=C(/C)[O-].CC(=O)/C=C(/C)[O-].[O]=[V+2]` [Complex II, Bis(acetylacetonato)oxo-vanadium(IV)], for which, in series [3], the IC50 was 950 ± 90 µM. Regarding `CC(C)(C)OC(=O)[N-]C(=N)N.CC(C)(C)OC(=O)[N-]C(=N)N.[O]=[V+2]` [Complex III, Bis{tert-butyl[amino(imino)methyl]carbamato} oxovanadium (IV)], the “decreasing blood glucose level” value in series [2] came out at 42%. Further, the half-maximal inhibitory concentration (IC50) in series [3] was 540 ± 70 µM. Further, in the series with rat, the LD50exp was 190(170–210) and the “Class in AD” value was determined as 3. In the case of `O=C([O-])C([O-])C([O-])C(=O)[O-].O=C([O-])C([O-])C([O-])C(=O)[O-].[K+].[K+].[K+].[K+].[O]=[V+2].[O]=[V+2]` (stereo not drawn) [Complex IV, Potassium bis((m2-d,d-tartrato-O,O′,O′′,O′′′)-oxo-vanadium(IV)) dihydrate], the IC50 in series [3] was found to be 950 ± 100 µM. Regarding `O=C1[O][V+4]2(=[O])([O]C(=O)c3c(O)ccc[n+]32)[n+]2cccc(O)c21` [VO(3hpa)2], the IC50 in the series with FFAs (ref 1 (Sakurai, Yasui 2003)) is 470 µM. For the compound `Cc1ccc[n+]2c1C(=O)[O][V+4]21(=[O])[O]C(=O)c2c(C)ccc[n+]21` [VO(3mpa)2], the IC50 with FFAs (ref 3 (Sakurai et al. 2000)) was 660 µM.

As to `O=C1[O][V+4]2(=[O])([O]C(=O)c3cc(Cl)cc[n+]32)[n+]2ccc(Cl)cc21` [VO(4clpa)2], in the series with FFAs (ref 3 (Sakurai et al. 2000)), the half-inhibitory concentration (IC50) was 700 µM. `O=C1[O][V+4]2(=[O])([O]C(=O)c3ccc(I)c[n+]32)[n+]2cc(I)ccc21` [VO(5ipa)2]: the half-inhibitory concentration (IC50) in the series with FFAs (ref 3 (Sakurai et al. 2000)) was 450 µM. As to `CCc1cccc2[n+]1[V+4]1(=[O])([O]C2=O)[O]C(=O)c2cccc(CC)[n+]21` [VO(6epa)2], the IC50 with FFAs (ref 4 (Sasagawa et al. 2002)) was 810 µM.

As to `O=C1[O][V+4]2(=[O])([O]C(=O)c3cccc(O)[n+]32)[n+]2c(O)cccc21` [VO(6hpa)2], the IC50 in the series with FFAs (ref 1 (Sakurai, Yasui 2003)) is 800 µM. Consider `Cc1cccc2[n+]1[V+4]1(=[O])([O]C2=O)[O]C(=O)c2cccc(C)[n+]21` [VO(6mpa)2], for which the half-inhibitory concentration (IC50) in the series with FFAs (ref 3 (Sakurai et al. 2000)) was 490 µM. Consider `CCCCCC1=C2[O][V+4]3(=[O])([O]C4=C(CCCCC)OC(C)=C(OC)C4=[O+]3)[O+]=C2C(OC)=C(C)O1` [VO(alx)2], for which the half-maximal inhibitory concentration (IC50) in the series on FFAs (ref 5 (Sakurai et al. 2010)) is 553 µM. As for `[O]=[V+4]12([O][n+]3ccccc3[S]1)[O][n+]1ccccc1[S]2` [VO(opt)2], the IC50 in the series on FFAs (ref 6 (Sakurai et al. 1999)) was 190 µM.

For the compound `O=C1[O][V+4]2(=[O])([O]C(=O)c3cccc[n+]32)[n+]2ccccc21` [VO(pic)2], the IC50 with FFAs (ref 3 (Sakurai et al. 2000)) is 590 µM.

With `O=S(=O)([O-])[O-].[O]=[V+2]` [VOSO4, Vanadyl sulfate], the half-maximal inhibitory concentration (IC50) was 840 µM in the series on FFAs (ref 1 (Sakurai, Yasui 2003)) and 1000 ± 90 µM in series [3]. Moreover, the “decreasing blood glucose level” value in series [2] is 16%. The LD50exp with rat was 448(356–540). The “Class in AD” value in the series with rat was 3.

Consider `Cc1cccc2[n+]1[Zn+2]1([O]C2=O)[O]C(=O)c2cccc(C)[n+]21` [Zn(6mpa)2], for which the IC50 in the series with FFAs (ref 7 (Yoshikawa et al. 2002)) was 310 µM.

For the compound `O=C[C@@H]1CC(=O)[NH][Zn@@+2]2([NH]C(=O)C[C@H](C=O)[NH]2)[NH]1` [Zn(L-Asn)2], the half-maximal inhibitory concentration (IC50) in the series on FFAs (ref 8 (Yoshikawa et al. 2001)) is 650 µM. Consider `O=C[C@H]1CCC[N]1[Zn+2][N]1CCC[C@@H]1C=O` [Zn(L-Pro)2], for which the half-inhibitory concentration (IC50) with FFAs (ref 8 (Yoshikawa et al. 2001)) is 890 µM. `C[C@@H](O)[C@H]1[NH][Zn+2]2([NH][C@H]([C@@H](C)O)C(=O)[O]2)[O]C1=O` [Zn(L-Thr)2]: the half-maximal inhibitory concentration (IC50) in the series on FFAs (ref 8 (Yoshikawa et al. 2001)) is 540 µM. For `CC(C)[C@H](C=O)[NH][Zn+2][NH][C@H](C=O)C(C)C` [Zn(L-Val)2], the IC50 in the series with FFAs (ref 8 (Yoshikawa et al. 2001)) was 770 µM. On to `Cc1occc(=O)c1[O][Zn+2][O]c1c(C)occc1=O` [Zn(maltolat)2], for which the IC50 in the series with FFAs (ref 7 (Yoshikawa et al. 2002)) is 590 µM. Turning to `O=C1[O][Zn+2]2([O]C(=O)c3cccc[n+]32)[n+]2ccccc21` [Zn(pic)2], the IC50 in the series with FFAs (ref 7 (Yoshikawa et al. 2002)) is 640 µM. `O=S1(=O)[O][Zn+2][O]1` [ZnSO4]: the IC50 in the series with FFAs (ref 8 (Yoshikawa et al. 2001)) is 810 µM. Consider `O=S(=O)(O)[O][V+4]123(=[O])[O]c4ccccc4C[N+]1(Cc1cccc[n+]12)Cc1cccc[n+]13` (stereo not drawn) [[VIVO(bp-O)HSO4]], for which the IC50 in the series on FFAs (ref 9 (Nilsson et al. 2009)) was 3850 µM. Regarding `COC(=O)[C@@H](Cc1c[nH]c2ccccc12)NC(=O)c1ccc2[n+](c1)[V+4]1(=[O])([O]C2=O)[O]C(=O)c2ccc(C(=O)N[C@H](Cc3c[nH]c4ccccc34)C(=O)OC)c[n+]21` [[VIVO(pic-trpMe)2]], the IC50 in the series on FFAs (ref 9 (Nilsson et al. 2009)) is 410 µM. Take `O=S(=O)([O-])[O-].[O]=[V+2].c1ccc(CN(Cc2ccccn2)Cc2ccccn2)nc1` [[VIVO(tpa)SO4]]: the IC50 with FFAs (ref 9 (Nilsson et al. 2009)) is 4600 µM. Regarding `O=C(N[C@H](Cc1c[nH]c2ccccc12)C(=O)O)c1ccc2[n+](c1)[V+4]1(=[O])([O]C2=O)[n+]2ccccc2C[N+]1(Cc1ccccn1)Cc1ccccn1` [[VVO(pic-trpH)tpa]2+], the IC50 with FFAs (ref 9 (Nilsson et al. 2009)) was 1840 µM. Take `[O]=[V+4]12([O]C3=COC=C[C@@H]3[O]1)[O]C1=COC=C[C@H]1[O]2` [bis(3-hydroxy-4-pyronato)oxovanadium(IV)]: in the series with FFAs (ref 2 (Sakurai et al. 2008)), the 50% inhibitory concentration (IC50) was 1180 µM.

With `CCC1=C2[O][V+4]3(=[O])([O]C4=C(CC)OC=C[C@@H]4[O]3)[O][C@H]2C=CO1` [bis(ethylmaltolato)oxovanadium(IV)], in the series on FFAs (ref 5 (Sakurai et al. 2010)), the IC50 is 632 µM. For the compound “(S)-[2-(N-salicylidene) amino-propionate] oxovanadium(IV) monohydrate [Complex V]”, in series [2], the “decreasing blood glucose level” value is listed as 26%. In addition, in series [3], the 50% inhibitory concentration (IC50) came out at 810 ± 60 µM. Also, in the series on rat, the LD50exp is 245(210–280) and the “Class in AD” value came out at 3.
